In US20220089600A1, “TGFß INHIBITOR AND PRODRUGS” (FUNDACIÓ INSTITUT DE RECERCA BIOMÈDICA (IRB BARCELONA), priority 2018, published 2022):

Assays:
human ALK5 = target: T1, human ALK5 (Homo sapiens, UniProt P36897); assay: KinaseProfiler enzymatic activity inhibition; format: biochemical
T1 construct: purchased Eurofins (Kinase Profiler service)
T1 sequence (P36897 34-503): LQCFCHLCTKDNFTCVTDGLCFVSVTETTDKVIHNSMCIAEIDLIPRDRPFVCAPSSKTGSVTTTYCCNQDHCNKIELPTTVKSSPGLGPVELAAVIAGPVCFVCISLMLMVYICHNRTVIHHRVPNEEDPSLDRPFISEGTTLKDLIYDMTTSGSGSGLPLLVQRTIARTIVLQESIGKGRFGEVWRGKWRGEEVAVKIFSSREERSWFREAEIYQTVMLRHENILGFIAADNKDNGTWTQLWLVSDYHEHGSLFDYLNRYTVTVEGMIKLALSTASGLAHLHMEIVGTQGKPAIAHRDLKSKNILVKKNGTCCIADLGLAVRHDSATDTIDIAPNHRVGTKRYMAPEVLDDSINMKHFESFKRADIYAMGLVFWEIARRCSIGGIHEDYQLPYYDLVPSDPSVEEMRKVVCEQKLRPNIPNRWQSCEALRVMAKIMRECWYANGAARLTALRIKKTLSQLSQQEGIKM
Protocol: Briefly, human ALK5 was incubated with 8 mM MOPS pH 7.0, 0.2 mM EDTA, 1 mM MnCl2, 2 mg/mL casein, 10 mM MgAcetate and [γ-33P-ATP] (specific activity approx. 500 cpm/pmol, concentration as required). The reaction was initiated by the addition of the MgATP mix. After incubation for 40 minutes at room temperature, the reaction was stopped by the addition of a 3% phosphoric acid solution. 10 μL of the reaction was then spotted onto a P30 filtermat and washed three times for 5 minutes in 75 mM phosphoric acid and once in methanol prior to drying and scintillation counting.
Compounds were tested using a 9-point curve with half-Log serial dilutions. The top concentration tested was 10 μM. Test compounds were prepared in 100% DMSO.

panel of 97 proteins = assay: scanEDGE (KINOMEscan) selectivity panel; format: binding
Protocol: Using scanEDGE (KINOMEscan, Eurofins) assays, the selectivity of the compound of formula I against a panel of 97 proteins was also measured. The selectivity profile of the compound of formula was good.

[1] = system: TGFβ signaling (12×CAGA-Firefly_Luc reporter) in HEK293T cells; assay: In vitro CAGA-Luciferase reporter assay; format: cell-based; details: Homo sapiens, HEK-293T, 5 ng/ml TGFB1, 16h, read-out: IC50, TGFβ signaling inhibition (CAGA-Luciferase)
Protocol: HEK293T cells were purchased from the ATCC and cultured in DMEM supplemented with L-glutamine and 10% fetal bovine serum (Life Technologies) at 37° C. and 5% CO2. The cells were seeded in 24-well plates and transfected with plasmids encoding 12×CAGA-Firefly_Luc and Tk-Renilla_Luc (75 and 10 ng per well, respectively), using polyethylenimine (Polysciences) as transfection reagent. After 7h, medium was replaced for starvation medium (DMEM+0.05% FBS). […] Luciferase activity was measured 16h later using the Dual Luciferase Assay kit (Promega): media were aspirated, and cells were lysed in 200 μl passive lysis buffer (kit) for 20 minutes. Bioluminescence was measured in a Berthold Lumat LB6507 luminometer (18 μl reagents, 10 seconds measurements). […]
When adding the luciferase substrate (luciferin) to the cell lysates, emission of light implies an active TGF-β pathway due to the production of pSMAD2/3-SMAD4, whereas no or little observed light would imply inhibition of the pathway by the inhibitor. Finally, the results could be normalized by the addition of Stop & Glo® which quenches the firefly luciferase enzyme/substrate and activates the Renilla transfection control, producing light which was again measured by the luminometer and used to normalize the data.

[2] = system: MTO129 established liver metastases; assay: Overt metastatic disease model, alone or with anti-PD-1; details: monotherapy
From the text: For this purpose, the protocol of mouse inoculation with MTO129 described for FIG. 13 was used, but here treatment with compounds started at day 16 post-inoculation. At this time point mice had developed large metastases. Treatments finished at day 24. […] In these experiments, the vast majority (>90%) of control mice die of liver metastatic disease.
Mouse tumor organoids (MTO129) were developed as indicated in example 3. C57BL/6J mice were purchased from Janvier at 6 weeks of age and injected at 7-8 weeks. For transplantation of MTO129 into the liver, cells were trypsinized (digesting the matrix and disaggregating organoids into single cells), counted and 300,000 cells were injected in HBSS (Hank's Balanced Salt Solution, Lonza) into the spleen, thus delivering the cells directly into the portal vein that connects the intestine to the liver. […] Treatment with compounds occurred by gavage (tube feeding) and mice were treated twice a day with 150 μl of compound suspension in vehicle. […] Control mice were given gavage vehicle and IgG2a isotype control antibody.
At this time point, mice had developed large liver metastases. Treatments finished at day 24. […] In these experiments, the vast majority (>90%) of control mice die of liver metastatic disease.

[3] = system: proteins in the SafetyScreen44 panel; assay: SafetyScreen44 safety panel; details: at 10 μM, all proteins tested
Protocol: (§1) In addition, a safety assessment was performed by using the SafetyScreen44™ service from Eurofins. The targets therein are all strongly associated with in vivo adverse drug reactions as referenced in the publication Reducing safety-related drug attrition: the use of in vitro pharmacological profiling (Bowes J et al., Nature Review Drug Discovery 2012, 11(12): 909-922). The panel represents a rational first step in preliminary safety assessments as they provide early identification of potential off-target interactions for the optimization of safety margins. This Safety Panel includes both enzymatic and binding assays. The percentage of inhibition for the compound of formula I at 10 μM was lower than 50% for all proteins tested.

[4] = system: proteins in the SafetyScreen44 panel (versus ALK5); assay: SafetyScreen44 safety panel; details: SafetyScreen44 panel (Eurofins) of off-target proteins; read-out: selectivity ratios for the proteins in the SafetyScreen44 panel
Protocol: as §1

Cc1cccc(-c2nn3c(c2-c2ccnc4ccc(O)cc24)CCC3)n1 [compound of formula I, 4-(2-(6-methylpyridin-2-yl)-5,6-dihydro-4H-pyrrolo[1,2-b]pyrazol-3-yl)quinolin-6-ol]
IC50 (human ALK5; KinaseProfiler, 9-point curve, top 10 μM, read-out: Enzyme activity inhibition IC50 (nM) ALK5 (TGFBR1)): 177 nM | ALK5 enzymatic potency, times more potent than prodrug of formula (III) (human ALK5; from Table 2): 4.7 times | ALK5 enzymatic potency, times more potent than prodrug of formula (IV) (human ALK5; from Table 2): 12.9 times | ALK5 enzymatic potency, times more potent than reference compound 337 (human ALK5; from Table 2): 1.8 times | ALK5 enzymatic potency, times more potent than reference compound 338 (human ALK5; from Table 2): 2.1 times | selectivity profile (panel of 97 proteins): good | IC50 [1]: 165 nM | toxicity screens including genotoxicity (Genotoxicity screens): cleared | efficacy at reducing the number of liver metastasis compared to galunisertib ([2]; FIG. 14, 1× equimolar doses): improved efficacy | survival rates compared to galunisertib ([2]; FIG. 15, 1× equimolar doses): higher survival rates | percentage of inhibition [3]: lower than 50% | selectivity ratio at 10 μM [4]: > 500
